Consider 22 compounds from US8859541B2, “6-alkynylpyridines” (Boehringer Ingelheim International GmbH, priority 2012, dated 2014).

For one assay, the target named is T1, XIAP BIR3 (Homo sapiens, UniProt P98170).
T1 construct: covering amino acids 241 to 356; XIAP BIR3; made in house; host or cells: E. coli
The assay is described as follows: XIAP BIR3 binding assay (DELFIA), displacement of SMAC peptide. Particulars: GST-fusion BIR3 domain (aa 241 to 356) 10 nM, SMAC peptide 10 nM; activity of the (S)-isomers. The method, boiled down: (§1)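 Each BIR3 domain (10 nM) incubated with biotinylated N-terminal SMAC peptide (10 nM) and compound for 1 h at room temp in Tris/NaCl buffer with BSA, DTT and Triton X-100. Captured on streptavidin plates; bound BIR3 detected by Eu-labelled anti-GST time-resolved fluorescence, giving IC50 values.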

The next assay has as its target T2, cIAP1 BIR3 (Homo sapiens, UniProt Q13490).
T2 construct: covering amino acids 256 to 363; cIAP1 BIR3; made in house; host or cells: E. coli
As to the kind of experiment: cIAP1 BIR3 binding assay (DELFIA), displacement of SMAC peptide. Particulars: GST-fusion BIR3 domain (aa 256 to 363) 10 nM, SMAC peptide 10 nM; activity of the (S)-isomers. The gist of the method:
as §1

The IC50 is the concentration needed to halve the response being measured.

T2 sequence (Q13490 256-363): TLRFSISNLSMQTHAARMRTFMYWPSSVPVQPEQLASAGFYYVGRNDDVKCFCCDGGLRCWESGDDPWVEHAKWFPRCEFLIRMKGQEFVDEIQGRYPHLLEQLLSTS
T1 sequence (P98170 241-356): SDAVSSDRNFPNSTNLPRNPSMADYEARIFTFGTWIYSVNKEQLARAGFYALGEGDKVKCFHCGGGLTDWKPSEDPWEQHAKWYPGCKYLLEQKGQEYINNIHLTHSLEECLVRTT

In the case of `CNC(C)C(=O)Nc1ccc(-c2c(C)nc3ccccn23)c(C#Cc2ccc(-n3cccn3)cc2)n1` (centres unmarked) [Example 90, 2-(methylamino)-N-[5-(2-methylimidazo[1,2-a]pyridin-3-yl)-6-[2-(4-pyrazol-1-ylphenyl)-ethynyl]pyridin-2-yl]propan-amide], the half-inhibitory concentration (IC50) at XIAP BIR3 was found to be 166 nM; at cIAP1 BIR3, 1 nM.
For the compound `CNC(C)C(=O)Nc1ccc(-c2c(C)nc3ccccn23)c(C#Cc2cc(C)nc3c(F)cccc23)n1` (centres unmarked) [Example 92, N-[6-[2-(8-fluoro-2-methylquinolin-4-yl)ethynyl]-5-(2-methylimidazo[1,2-a]pyridin-3-yl)pyridin-2-yl]-2-(methyl-amino)propanamide], the IC50 on XIAP BIR3 is 172 nM; at cIAP1 BIR3, 1 nM.
In the case of `CNC(C)C(=O)Nc1ccc(-c2c(C)nc3ccccn23)c(C#Cc2ccnc3c(F)cccc23)n1` (centres unmarked) [Example 93, N-[6-[2-(8-fluoroquinolin-4-yl)-ethynyl]-5-(2-methyl-imidazo[1,2-a]pyridin-3-yl)-pyridin-2-yl]-2-(methylamino)-propanamide], the concentration for half-maximal inhibition (IC50) stood at 198 nM at XIAP BIR3 and 1 nM on cIAP1 BIR3.
For `CNC(C)C(=O)Nc1ccc(-c2c(-c3ccncc3)nc3cc(C)ccn23)c(C#Cc2ccc3c(c2)OCC(=O)N3C)n1` (centres unmarked) [Example 94, 2-(methylamino)-N-[6-[2-(4-methyl-3-oxo-1,4-benzoxazin-7-yl)ethynyl]-5-(7-methyl-2-pyridin-4-ylimidazo[1,2-a]-pyridin-3-yl)pyridin-2-yl]-propanamide], in that order: 107 nM and 1 nM.
With `CNC(C)C(=O)Nc1ccc(-c2c(-c3ccncc3)nc3cc(C)ccn23)c(C#Cc2ccc3nccn3c2)n1` (centres unmarked) [Example 95, N-[6-(2-imidazo[1,2-a]pyridin-6-ylethynyl)-5-(7-methyl-2-pyridin-4-ylimidazo[1,2-a]-pyridin-3-yl)pyridin-2-yl]-2-(methylamino)propanamide], the IC50 came out at 97 nM on XIAP BIR3 and 1 nM at cIAP1 BIR3.
The like results for `CNC(C)C(=O)Nc1ccc(-c2c(-c3ccncc3)nc3cc(C)ccn23)c(C#Cc2ccc(OC)c3ncccc23)n1` (centres unmarked) [Example 96, N-[6-[2-(8-methoxyquinolin-5-yl)ethynyl]-5-(7-methyl-2-pyridin-4-ylimidazo[1,2-a]-pyridin-3-yl)pyridin-2-yl]-2-(methylamino)propanamide] were, in that order, 83 nM and 1 nM.
`CC(N)C(=O)Nc1ccc(-c2cncc(Oc3ccccc3)c2)c(C#Cc2ccccc2)n1` (centres unmarked) [Example 100, 2-amino-N-[5-(5-phenoxypyridin-3-yl)-6-(2-phenylethynyl)pyridin-2-yl]propanamide]: the results for the IC50 on XIAP BIR3 and at cIAP1 BIR3 were 461 nM and 324 nM, respectively.
For `Cc1ccccc1-c1ccc(NC(=O)C(C)N)nc1C#Cc1ccccc1` (centres unmarked) [Example 108, 2-amino-N-[5-(2-methylphenyl)-6-(2-phenylethynyl)pyridin-2-yl]-propanamide], in that order: 1610 nM and 175 nM.
In the case of `CC(N)C(=O)Nc1ccc(-c2cccc(C#N)c2)c(C#Cc2ccccc2)n1` (centres unmarked) [Example 113, 2-amino-N-[5-(3-cyanophenyl)-6-(2-phenylethynyl)pyridin-2-yl]-propanamide], the IC50 at XIAP BIR3 turned out to be 228 nM; at cIAP1 BIR3 it was 67 nM.
For `CNC(C)C(=O)Nc1ccc(-c2cccc(NC(C)=O)c2)c(C#Cc2ccccc2)n1` (centres unmarked) [Example 118, N-[5-(3-acetamidophenyl)-6-(2-phenylethynyl)pyridin-2-yl]-2-(methylamino)propanamide], the half-maximal inhibitory concentration (IC50) on XIAP BIR3 was determined as 287 nM; at cIAP1 BIR3, 92 nM.
The like results for `CNC(C)C(=O)Nc1ccc(-c2cncc(OC)c2)c(C#Cc2ccccc2)n1` (centres unmarked) [Example 121, N-[5-(5-methoxypyridin-3-yl)-6-(2-phenylethynyl)pyridin-2-yl]-2-(methylamino)propanamide] were, in that order, 97 nM and 31 nM.
On to `CNC(C)C(=O)Nc1ccc(-c2cncc(Cl)c2)c(C#Cc2ccccc2)n1` (centres unmarked) [Example 122, N-[5-(5-chloropyridin-3-yl)-6-(2-phenylethynyl)pyridin-2-yl]-2-(methylamino)propanamide], for which the 50% inhibitory concentration (IC50) came to 148 nM on XIAP BIR3 and 23 nM on cIAP1 BIR3.
Turning to `CNC(C)C(=O)Nc1ccc(-c2cncc(C#N)c2)c(C#Cc2ccccc2)n1` (centres unmarked) [Example 123, N-[5-(5-cyanopyridin-3-yl)-6-(2-phenylethynyl)pyridin-2-yl]-2-(methylamino)propanamide], the IC50 at XIAP BIR3 was determined as 121 nM; at cIAP1 BIR3 it was 25 nM.
With `CCOc1ccc(-c2ccc(NC(=O)C(C)NC)nc2C#Cc2ccccc2)cn1` (centres unmarked) [Example 125, N-[5-(6-ethoxypyridin-3-yl)-6-(2-phenylethynyl)pyridin-2-yl]-2-(methylamino)propanamide], the values for the half-inhibitory concentration (IC50) at XIAP BIR3 and at cIAP1 BIR3 were 580 nM and 131 nM, respectively.
The like results for `CNC(C)C(=O)Nc1ccc(-c2ccc(OC)nc2OC)c(C#Cc2ccccc2)n1` (centres unmarked) [Example 126, N-[5-(2,6-dimethoxypyridin-3-yl)-6-(2-phenylethynyl)pyridin-2-yl]-2-(methylamino)propanamide] were, in that order, 1010 nM and 166 nM.
For `CNC(C)C(=O)Nc1ccc(-c2cncc(C)c2)c(C#Cc2ccccc2)n1` (centres unmarked) [Example 127, 2-(methylamino)-N-[5-(5-methylpyridin-3-yl)-6-(2-phenyl-ethynyl)pyridin-2-yl]propanamide], in that order: 128 nM and 21 nM.
On to `CNC(C)C(=O)Nc1ccc(-c2ccc(N3CCCC3)nc2)c(C#Cc2ccccc2)n1` (centres unmarked) [Example 129, 2-(methylamino)-N-[6-(2-phenyl-ethynyl)-5-(6-pyrrolidin-1-ylpyridin-3-yl)pyridin-2-yl]-propanamide], for which the results for the IC50 on XIAP BIR3 and on cIAP1 BIR3 were 436 nM and 98 nM, respectively.
Take `CNC(C)C(=O)Nc1ccc(-c2cccc3ccccc23)c(C#Cc2ccccc2)n1` (centres unmarked) [Example 130, 2-(methylamino)-N-[5-naphthalen-1-yl-6-(2-phenyl-ethynyl)pyridin-2-yl]propanamide]: the IC50 on XIAP BIR3 was found to be 3200 nM; at cIAP1 BIR3, 172 nM.
The like results for `CNC(C)C(=O)Nc1ccc(-c2cc(F)cc(C(=O)OC)c2)c(C#Cc2ccccc2)n1` (centres unmarked) [Example 132, methyl 3-fluoro-5-[6-[[2-(methyl-amino)propanoyl]amino]-2-(2-phenylethynyl)pyridin-3-yl]-benzoate] were, in that order, 326 nM and 97 nM.
For `CNC(C)C(=O)Nc1ccc(-c2cnn3ccccc23)c(C#Cc2ccccc2)n1` (centres unmarked) [Example 138, 2-(methylamino)-N-[6-(2-phenyl-ethynyl)-5-pyrazolo[1,5-a]-pyridin-3-ylpyridin-2-yl]propan-amide], in that order: 55 nM and 12 nM.
The like results for `CNC(C)C(=O)Nc1ccc(-c2cscc2C#N)c(C#Cc2ccccc2)n1` (centres unmarked) [Example 145, N-[5-(4-cyanothiophen-3-yl)-6-(2-phenylethynyl)pyridin-2-yl]-2-(methylamino)propanamide] were, in that order, 317 nM and 94 nM.
For the compound `CNC(C)C(=O)Nc1ccc(-c2ccc(C)nc2)c(C#Cc2ccccc2)n1` (centres unmarked) [Example 147, 2-(methylamino)-N-[5-(6-methylpyridin-3-yl)-6-(2-phenyl-ethynyl)pyridin-2-yl]propanamide], the IC50 at XIAP BIR3 was found to be 125 nM; on cIAP1 BIR3, 32 nM.
